Consider 2 substances from patent US8580321B2, “Method for reducing the effects of chemotherapy using flagellin related polypeptides” (priority 2003, dated 2013).

One data set deals with small intestinal crypts. As to the kind of experiment: BrdU incorporation in small intestinal crypts. It counts as in vivo, mouse. An excerpt: Besides a direct inhibition of apoptosis, temporary halt of proliferation followed by repair may be an alternative mechanism of radioprotection, and has been described for other radioprotectors such as TGF-β3 (Booth D., et. al., Int J Cancer. 2000 Apr. 1; 86(1):53-9). Accordingly, we decided to examine the possible influence of CBLB502 (AA′) on the proliferative activity of the cells in small intestine (with and without irradiation) during the first hours after its administration (FIG. 32). CBLB502 or PBS was injected i.p. in mice, followed after 30 min by 15 Gy irradiation (if used). 2 hr after injection (1.5 hr after irradiation if it was applied), BrdU was injected intraperitoneally. Samples of small intestine were obtained after additional 1.5 hours.
We next determined the duration of the CBLB502-induced growth arrest in small intestine. CBLB502 or PBS was injected i.p. in mice, BrdU was injected 1 or 4 hours later and samples of small intestine were obtained after additional 1.5 hours from several mice (samples from three mice are shown) (FIG. 33).

Data set [1] concerns mice. As to the kind of experiment: Acute toxicity in mice. It counts as in vivo, mouse. The following applies: s.c. 0.5, 1, 2, 4 and 8 mg/kg, several days after administration. As for the experimental part:
The lethal dose of Salmonella flagellin is between 1 mg/kg (systemic inflammation) and 10 mg/kg (100% lethality). We subcutaneously administered increasing doses of AA′ to mice (4 mice per dose group) at 0.5, 1, 2, 4 and 8 mg/kg. Due to the lower (˜60%) molecular weight, 8 mg/kg of AA′ correspond to a molar-equivalent dose of 13.3 mg/kg of flagellin. […] The reduced toxicity may be sue to the absence of the central pro-inflammatory domain in the AA′ fragment.

Data set [2] in a line: Pharmacokinetics: plasma levels by sandwich ELISA. Format: in vivo, mouse. The conditions noted are these: ICR mice. As for the experimental part:
Pharmacokinetic parameters (effective concentration and the duration of drug the presence in the organism) may be important for route, dose and time of drug administration. The pharmacokinetics of CBLB502 (AA′) were thus tested for four common routes of injection: intravenous (i.v.), subcutaneous (s.c.), intraperitoneal (i.p.) or intramuscular (i.m.). A radioprotective dose of CBLB502 (AA′), 0.2 mg/kg, was injected in 12-15 week old ICR mice and plasma samples were collected at the specified times after injection (at least 3 mice/point). The levels of CBLB502 in plasma were measured by sandwich ELISA using known concentrations of CBLB502 spiked in the control ICR plasma for calibration.

For data set [3], the system named is vascular endothelial cells of villi. As to the kind of experiment: TUNEL assay of apoptosis in intestinal tissue after irradiation. It counts as in vivo, mouse. The conditions noted are these: 5 hours post irradiation, pretreated mice. An excerpt: In addition to purely histological observation of cell death and survival, we performed more specialized tests of apoptotic cell death in intestinal tissue using a TUNEL assay, which detects apoptosis-associated DNA fragmentation. These experiments allowed us to define with a high degree of probability cellular populations that are depleted by radiation and rescued by flagellin fragment treatment. The earliest radiation-induced alterations detectable in the small intestine after treatment with IR is apoptosis occurring in vascular endothelial cells of villi, which is seen as early as 5 hours post treatment (FIG. 17B). […] Effective protection of endothelial cells of the small intestine by the flagellin fragment may be due to expression of TLR5 in these cells.

Data set [4] relates to mice. The following applies: known from literature; cited from earlier work.

A value given as a limit tells only on which side of the number the result lay.

As for “AA′: flagellin fragment (1-177)-Linker-(402-505), SEQ ID NO: 8”, the “incorporation of BrdU in intestine, BrdU after 1 hour” value in the data set on small intestinal crypts (BrdU injected 1 hour after CBLB502) was “reduced as compared to control”. Moreover, the “incorporation/DNA synthesis, BrdU after 4 hr” value with small intestinal crypts (BrdU injected 4 hr after CBLB502) is “even higher than in control”. The “level of BrdU incorporation, irradiated mice” value in the data set with small intestinal crypts (i.p. 30 min before 15 Gy, NIH-Swiss mice) is “strongly reduced”. Further, in the data set on small intestinal crypts (i.p., BrdU 2 hr after injection, NIH-Swiss mice), the “DNA synthesis (BrdU incorporation) in crypts, no irradiation” value was “nearly undetectable”. Also, the “detrimental effects (mortality, morbidity, systemic inflammation)” value in the data set with mice [1] is “no visible detrimental effects”. In addition, in data set [2] (0.2 mg/kg intramuscular injection), the “time with significant (>5 ng/ml) levels in mouse plasma” value was over 3 h. In addition, the “disappearance from the bloodstream” value in data set [2] (0.2 mg/kg intravenous injection) is recorded as “more rapid disappearance”. Further, in data set [2] (0.2 mg/kg, intramuscular or intraperitoneal injection), the “levels and persistence in plasma by route” value is “highest levels and longest persistence”. Further, the “apoptosis in vascular endothelial cells of villi” value in data set [3] is “almost completely blocked”.
Turning to “flagellin: Salmonella dublin FliC flagellin, 505 amino acids, SEQ ID NO: 1; recombinant full-length protein”, in the data set on mice [4], the highest tolerable dose was 300 μg/mouse.
